The numbers were not newly measured in US10335411B2, “Administration of ubiquitin-activating enzyme inhibitor and radiation” (Millennium Pharmaceuticals, Inc., priority 2014, dated 2019), which cites them from elsewhere.

The test system of data set [1] is mouse acute myeloid leukemia (AML model). The following applies: Xu et al., 2010; cited from earlier work.
Data set [2] deals with leukemia and myeloma cell lines. The following applies: Xu et al., 2010; cited from earlier work.

Take `O=C1NN(c2ccc(F)c(Cl)c2)C(=O)/C1=C\c1ccc([N+](=O)[O-])o1` [PYZD-4409]: the anti-tumor activity entry in data set [1] is given as “induced anti-tumor activity”. Besides, the cell death entry in data set [2] was “induced cell death”.
